Columns and labels:
A-Raf = target: T1, A-Raf (Homo sapiens, UniProt P10398); test: Kinase activity assay, A-Raf
T1 sequence (P10398 1-606): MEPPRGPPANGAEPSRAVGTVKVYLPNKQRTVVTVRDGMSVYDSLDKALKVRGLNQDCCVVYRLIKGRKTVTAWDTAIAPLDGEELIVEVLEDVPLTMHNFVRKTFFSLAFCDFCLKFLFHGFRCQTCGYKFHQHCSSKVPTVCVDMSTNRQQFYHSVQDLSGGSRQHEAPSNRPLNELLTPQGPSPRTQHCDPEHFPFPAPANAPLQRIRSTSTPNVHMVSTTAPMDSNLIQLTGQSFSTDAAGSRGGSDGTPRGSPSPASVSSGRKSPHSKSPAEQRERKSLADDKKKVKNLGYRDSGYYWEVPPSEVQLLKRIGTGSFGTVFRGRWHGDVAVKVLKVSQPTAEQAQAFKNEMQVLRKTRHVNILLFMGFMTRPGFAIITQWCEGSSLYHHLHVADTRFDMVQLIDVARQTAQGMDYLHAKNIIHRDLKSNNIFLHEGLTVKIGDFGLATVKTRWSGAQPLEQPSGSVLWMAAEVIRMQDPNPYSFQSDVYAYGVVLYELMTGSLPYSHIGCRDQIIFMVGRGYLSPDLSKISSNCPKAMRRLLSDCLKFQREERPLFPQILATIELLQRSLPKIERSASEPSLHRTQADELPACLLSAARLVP

Kdr = Kdr (Homo sapiens, UniProt P35968); test: Kinase activity assay, Kdr
Kit = Kit (Homo sapiens, UniProt P10721); test: Kinase activity assay, Kit
B-Raf = B-Raf (Homo sapiens, UniProt P15056); test: Kinase activity assay, B-Raf; type: biochemical; conditions: read-out: activity toward kinase B-Raf, IC50
Fms = Fms (Homo sapiens, UniProt P07333); test: Kinase activity assay, Fms
Src = Src (Homo sapiens, UniProt P12931); test: Kinase activity assay, Src
B-Raf V600E = B-Raf V600E (Homo sapiens, UniProt P15056, V600E); test: Kinase activity assay, B-Raf V600E; type: biochemical; conditions: read-out: activity toward kinase B-Raf V600E, IC50
MAP4K4 = MAP4K4 (Homo sapiens, UniProt O95819); test: Kinase activity assay, MAP4K4
C-Raf = C-Raf (Homo sapiens, UniProt P04049); test: Kinase activity assay, C-Raf
C-Raf, sequence (P04049 whole entry): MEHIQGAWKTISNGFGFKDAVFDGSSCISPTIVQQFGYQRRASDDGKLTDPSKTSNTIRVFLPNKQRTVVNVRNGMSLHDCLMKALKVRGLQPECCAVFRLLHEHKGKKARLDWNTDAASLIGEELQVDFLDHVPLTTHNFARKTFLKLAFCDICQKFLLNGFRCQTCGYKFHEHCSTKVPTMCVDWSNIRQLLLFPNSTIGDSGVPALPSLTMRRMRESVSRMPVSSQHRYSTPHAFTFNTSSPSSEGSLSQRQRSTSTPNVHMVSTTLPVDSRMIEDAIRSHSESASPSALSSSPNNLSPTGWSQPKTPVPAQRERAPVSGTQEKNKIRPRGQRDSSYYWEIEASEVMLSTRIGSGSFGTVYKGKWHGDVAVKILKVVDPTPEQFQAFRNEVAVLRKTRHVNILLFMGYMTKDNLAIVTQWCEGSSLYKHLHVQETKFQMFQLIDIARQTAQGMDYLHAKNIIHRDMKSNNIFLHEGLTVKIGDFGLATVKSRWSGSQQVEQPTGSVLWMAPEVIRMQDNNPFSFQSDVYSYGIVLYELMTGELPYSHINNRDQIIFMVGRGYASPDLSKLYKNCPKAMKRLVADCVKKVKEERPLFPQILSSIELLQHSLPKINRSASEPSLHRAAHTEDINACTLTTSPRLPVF

Fms, sequence (P07333 20-972): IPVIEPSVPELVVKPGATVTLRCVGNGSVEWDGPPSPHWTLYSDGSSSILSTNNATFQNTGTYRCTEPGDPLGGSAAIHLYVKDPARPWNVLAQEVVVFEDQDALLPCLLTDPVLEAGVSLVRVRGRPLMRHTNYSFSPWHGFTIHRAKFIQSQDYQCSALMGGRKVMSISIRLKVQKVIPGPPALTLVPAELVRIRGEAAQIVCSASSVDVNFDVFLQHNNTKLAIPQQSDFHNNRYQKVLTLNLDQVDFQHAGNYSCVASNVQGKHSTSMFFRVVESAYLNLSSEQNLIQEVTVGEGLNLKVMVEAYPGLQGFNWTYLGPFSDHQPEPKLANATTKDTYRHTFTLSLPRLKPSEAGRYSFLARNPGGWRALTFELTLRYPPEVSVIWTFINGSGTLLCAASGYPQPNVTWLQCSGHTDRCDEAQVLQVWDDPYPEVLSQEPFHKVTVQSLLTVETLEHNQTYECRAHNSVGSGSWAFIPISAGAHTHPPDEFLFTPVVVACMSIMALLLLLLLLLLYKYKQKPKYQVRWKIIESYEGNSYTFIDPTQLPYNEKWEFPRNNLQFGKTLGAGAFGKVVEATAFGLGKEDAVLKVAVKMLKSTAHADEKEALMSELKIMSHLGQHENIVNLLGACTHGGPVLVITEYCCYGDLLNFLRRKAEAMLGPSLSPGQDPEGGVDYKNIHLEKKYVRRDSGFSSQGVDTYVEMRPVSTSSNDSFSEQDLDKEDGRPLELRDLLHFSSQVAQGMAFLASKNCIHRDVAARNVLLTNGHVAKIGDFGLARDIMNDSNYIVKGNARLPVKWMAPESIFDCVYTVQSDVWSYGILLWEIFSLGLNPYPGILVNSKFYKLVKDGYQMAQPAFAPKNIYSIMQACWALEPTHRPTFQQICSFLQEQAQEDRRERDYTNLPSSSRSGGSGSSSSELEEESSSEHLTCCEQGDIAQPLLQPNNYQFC
B-Raf, sequence (P15056 whole entry): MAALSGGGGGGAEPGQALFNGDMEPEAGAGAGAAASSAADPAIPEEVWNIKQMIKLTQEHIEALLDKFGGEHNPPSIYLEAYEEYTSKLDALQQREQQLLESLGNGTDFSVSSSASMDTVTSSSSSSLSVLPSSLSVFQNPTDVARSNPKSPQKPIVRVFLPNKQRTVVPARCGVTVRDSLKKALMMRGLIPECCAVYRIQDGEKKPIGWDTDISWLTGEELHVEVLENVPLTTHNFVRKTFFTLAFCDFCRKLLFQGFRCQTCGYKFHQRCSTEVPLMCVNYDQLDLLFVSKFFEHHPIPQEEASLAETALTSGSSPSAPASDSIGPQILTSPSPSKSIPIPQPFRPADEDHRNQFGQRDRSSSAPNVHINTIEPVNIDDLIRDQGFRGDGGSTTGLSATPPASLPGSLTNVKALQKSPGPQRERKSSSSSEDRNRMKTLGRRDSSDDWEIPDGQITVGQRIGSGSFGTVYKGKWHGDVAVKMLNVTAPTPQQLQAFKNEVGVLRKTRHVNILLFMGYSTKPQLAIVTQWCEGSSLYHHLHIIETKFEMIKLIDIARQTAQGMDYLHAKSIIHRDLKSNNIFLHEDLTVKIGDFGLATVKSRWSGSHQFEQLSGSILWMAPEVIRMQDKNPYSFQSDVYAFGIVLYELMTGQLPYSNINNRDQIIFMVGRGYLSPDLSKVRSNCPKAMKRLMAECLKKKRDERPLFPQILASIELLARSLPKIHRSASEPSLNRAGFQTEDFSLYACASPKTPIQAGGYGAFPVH
Kit, sequence (P10721 26-976): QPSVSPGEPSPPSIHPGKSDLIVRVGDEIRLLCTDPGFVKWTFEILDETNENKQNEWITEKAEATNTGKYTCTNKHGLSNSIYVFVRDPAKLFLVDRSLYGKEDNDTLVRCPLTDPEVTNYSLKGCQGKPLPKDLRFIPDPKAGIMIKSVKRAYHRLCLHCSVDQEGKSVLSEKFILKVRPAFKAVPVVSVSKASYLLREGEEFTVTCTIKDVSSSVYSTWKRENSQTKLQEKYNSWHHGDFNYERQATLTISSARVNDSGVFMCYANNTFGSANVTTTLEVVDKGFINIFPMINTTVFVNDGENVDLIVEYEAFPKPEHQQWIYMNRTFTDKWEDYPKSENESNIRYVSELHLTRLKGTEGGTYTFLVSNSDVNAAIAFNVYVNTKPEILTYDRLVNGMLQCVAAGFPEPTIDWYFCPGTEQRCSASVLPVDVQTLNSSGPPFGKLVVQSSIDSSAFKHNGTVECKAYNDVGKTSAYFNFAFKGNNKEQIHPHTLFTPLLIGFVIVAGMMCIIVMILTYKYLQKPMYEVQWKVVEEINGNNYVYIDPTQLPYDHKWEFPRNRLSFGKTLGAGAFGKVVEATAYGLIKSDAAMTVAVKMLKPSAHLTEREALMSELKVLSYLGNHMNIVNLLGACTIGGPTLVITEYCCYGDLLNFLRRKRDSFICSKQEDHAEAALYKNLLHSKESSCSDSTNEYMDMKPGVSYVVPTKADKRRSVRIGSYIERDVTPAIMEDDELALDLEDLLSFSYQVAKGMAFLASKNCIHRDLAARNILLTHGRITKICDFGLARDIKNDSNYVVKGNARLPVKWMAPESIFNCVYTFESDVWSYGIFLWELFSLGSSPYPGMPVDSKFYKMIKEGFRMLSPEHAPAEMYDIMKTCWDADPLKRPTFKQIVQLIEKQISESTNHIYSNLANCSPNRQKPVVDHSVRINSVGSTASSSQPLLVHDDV
B-Raf V600E, sequence (P15056 whole entry V600E): as the sequence (P15056 whole entry) above, with V600E counted along it
Src, sequence (P12931 whole entry): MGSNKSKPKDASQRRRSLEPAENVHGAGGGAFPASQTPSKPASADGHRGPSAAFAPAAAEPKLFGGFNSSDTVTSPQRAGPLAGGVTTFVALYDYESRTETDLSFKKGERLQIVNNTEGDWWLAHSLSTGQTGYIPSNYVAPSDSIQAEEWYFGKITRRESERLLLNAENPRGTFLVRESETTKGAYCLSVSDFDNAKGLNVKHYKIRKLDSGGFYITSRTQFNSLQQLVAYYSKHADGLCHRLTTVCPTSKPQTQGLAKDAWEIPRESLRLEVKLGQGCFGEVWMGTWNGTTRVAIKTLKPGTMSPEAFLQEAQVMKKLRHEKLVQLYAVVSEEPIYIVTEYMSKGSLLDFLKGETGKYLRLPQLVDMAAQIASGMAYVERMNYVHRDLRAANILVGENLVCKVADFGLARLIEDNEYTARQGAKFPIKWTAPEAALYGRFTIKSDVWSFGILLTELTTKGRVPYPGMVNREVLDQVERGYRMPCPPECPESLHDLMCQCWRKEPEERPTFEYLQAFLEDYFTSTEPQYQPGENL

Row | IC50 (A-Raf) [µM] | IC50 (Kdr) [µM] | IC50 (Kit) [µM] | IC50 (B-Raf) [µM] | IC50 (Fms) [µM] | IC50 (Src) [µM] | IC50 (B-Raf V600E) [µM] | IC50 (MAP4K4) [µM] | IC50 (C-Raf) [µM] | Structure (SMILES)
1 | ≤ 10 | ≤ 10 | ≤ 10 | ≤ 10 | ≤ 10 | ≤ 10 | ≤ 10 | ≤ 10 | ≤ 10 | CCCc1ccc(-c2cnc3[nH]cc(C(=O)c4c(F)ccc(NS(=O)(=O)CCC)c4F)c3c2)cn1 [P-2224, Propane-1-sulfonic acid {2,4-difluoro-3-[5-(6-propyl-pyridin-3-yl)-1H-pyrrolo[2,3-b]pyridine-3-carbonyl]-phenyl}-amide]
2 | ≤ 10 | ≤ 10 | ≤ 10 | ≤ 10 | ≤ 10 | ≤ 10 | ≤ 10 | ≤ 10 | ≤ 10 | O=C(c1c(F)ccc(NS(=O)(=O)c2ccccc2F)c1F)c1c[nH]c2nccc(Cl)c12 [P-2017, N-[3-(4-Chloro-1H-pyrrolo[2,3-b]pyridine-3-carbonyl)-2,4-difluoro-phenyl]-2-fluoro-benzenesulfonamide]
3 | ≤ 10 | ≤ 10 | ≤ 10 | ≤ 10 | – | ≤ 10 | ≤ 10 | ≤ 10 | ≤ 10 | COc1cnc2[nH]cc(C(=O)c3c(F)ccc(NS(=O)(=O)CCC(F)(F)F)c3F)c2c1 [P-2327, 3,3,3-Trifluoro-propane-1-sulfonic acid [2,4-difluoro-3-(5-methoxy-1H-pyrrolo[2,3-b]pyridine-3-carbonyl)-phenyl]-amide]
4 | ≤ 10 | ≤ 10 | ≤ 10 | ≤ 10 | – | ≤ 10 | ≤ 10 | ≤ 10 | ≤ 10 | O=C(c1c(F)ccc(NS(=O)(=O)c2cccc(F)c2)c1F)c1c[nH]c2nccc(Cl)c12 [P-2019, N-[3-(4-Chloro-1H-pyrrolo[2,3-b]pyridine-3-carbonyl)-2,4-difluoro-phenyl]-3-fluoro-benzenesulfonamide]
5 | ≤ 10 | ≤ 10 | – | ≤ 10 | ≤ 10 | ≤ 10 | ≤ 10 | ≤ 10 | ≤ 10 | O=C(c1c(F)ccc(NS(=O)(=O)CC(F)(F)F)c1F)c1c[nH]c2ncc(Cl)cc12 [P-2339, 2,2,2-Trifluoro-ethanesulfonic acid [3-(5-chloro-1H-pyrrolo[2,3-b]pyridine-3-carbonyl)-2,4-difluoro-phenyl]-amide]
6 | ≤ 10 | ≤ 10 | ≤ 10 | ≤ 10 | – | ≤ 10 | ≤ 10 | ≤ 10 | ≤ 10 | Cc1cnc2[nH]cc(C(=O)c3c(F)ccc(NS(=O)(=O)CCC(F)(F)F)c3F)c2c1 [P-2328, 3,3,3-Trifluoro-propane-1-sulfonic acid [2,4-difluoro-3-(5-methyl-1H-pyrrolo[2,3-b]pyridine-3-carbonyl)-phenyl]-amide]
7 | ≤ 10 | ≤ 10 | ≤ 10 | ≤ 10 | – | ≤ 10 | ≤ 10 | ≤ 10 | ≤ 10 | COc1cnc2[nH]cc(C(=O)c3c(F)ccc(NS(=O)(=O)C(F)(F)F)c3F)c2c1 [P-2347, N-[2,4-Difluoro-3-(5-methoxy-1H-pyrrolo[2,3-b]pyridine-3-carbonyl)-phenyl]-C,C,C-trifluoro-methanesulfonamide]
8 | ≤ 10 | ≤ 10 | ≤ 10 | ≤ 10 | – | ≤ 10 | ≤ 10 | ≤ 10 | ≤ 10 | COc1cnc2[nH]cc(C(=O)c3c(F)ccc(NS(=O)(=O)CC(F)(F)F)c3F)c2c1 [P-2335, 2,2,2-Trifluoro-ethanesulfonic acid [2,4-difluoro-3-(5-methoxy-1H-pyrrolo[2,3-b]pyridine-3-carbonyl)-phenyl]-amide]
9 | ≤ 10 | ≤ 10 | ≤ 10 | ≤ 10 | – | ≤ 10 | ≤ 10 | ≤ 10 | ≤ 10 | CS(=O)(=O)Nc1ccc(F)c(C(=O)c2c[nH]c3nccc(Cl)c23)c1F [P-2290, N-[3-(4-Chloro-1H-pyrrolo[2,3-b]pyridine-3-carbonyl)-2,4-difluoro-phenyl]-methanesulfonamide]
10 | ≤ 10 | ≤ 10 | ≤ 10 | ≤ 10 | – | ≤ 10 | ≤ 10 | ≤ 10 | ≤ 10 | COc1cnc2[nH]cc(C(=O)c3c(F)ccc(NS(=O)(=O)c4ccccc4F)c3F)c2c1 [P-2009, N-[2,4-Difluoro-3-(5-methoxy-1H-pyrrolo[2,3-b]pyridine-3-carbonyl)-phenyl]-2-fluoro-benzenesulfonamide]
11 | ≤ 10 | ≤ 10 | ≤ 10 | ≤ 10 | – | ≤ 10 | ≤ 10 | ≤ 10 | ≤ 10 | O=C(c1c(F)ccc(NS(=O)(=O)CC(F)(F)F)c1F)c1c[nH]c2nccc(Cl)c12 [P-2338, 2,2,2-Trifluoro-ethanesulfonic acid [3-(4-chloro-1H-pyrrolo[2,3-b]pyridine-3-carbonyl)-2,4-difluoro-phenyl]-amide]
12 | ≤ 10 | ≤ 10 | ≤ 10 | ≤ 10 | – | ≤ 10 | ≤ 10 | ≤ 10 | ≤ 10 | O=C(c1c(F)ccc(NS(=O)(=O)N2CCCC2)c1F)c1c[nH]c2ncc(Cl)cc12 [P-2375, Pyrrolidine-1-sulfonic acid [3-(5-chloro-1H-pyrrolo[2,3-b]pyridine-3-carbonyl)-2,4-difluoro-phenyl]-amide]
13 | ≤ 10 | ≤ 10 | ≤ 10 | ≤ 10 | – | ≤ 10 | ≤ 10 | ≤ 10 | ≤ 10 | Cc1cnc2[nH]cc(C(=O)c3c(F)ccc(NS(=O)(=O)c4ccccc4F)c3F)c2c1 [P-2014, N-[2,4-Difluoro-3-(5-methyl-1H-pyrrolo[2,3-b]pyridine-3-carbonyl)-phenyl]-2-fluoro-benzenesulfonamide]
14 | ≤ 10 | ≤ 10 | ≤ 10 | ≤ 10 | – | ≤ 10 | ≤ 10 | ≤ 10 | ≤ 10 | Cc1cnc2[nH]cc(C(=O)c3c(F)ccc(NS(=O)(=O)c4cccc(F)c4)c3F)c2c1 [P-2016, N-[2,4-Difluoro-3-(5-methyl-1H-pyrrolo[2,3-b]pyridine-3-carbonyl)-phenyl]-3-fluoro-benzenesulfonamide]
15 | ≤ 10 | ≤ 10 | ≤ 10 | ≤ 10 | – | ≤ 10 | ≤ 10 | ≤ 10 | ≤ 10 | CCCS(=O)(=O)Nc1ccc(F)c(C(=O)c2c[nH]c3ncc(-c4ccc(N5CCCC5)nc4)cc23)c1F [P-2231, Propane-1-sulfonic acid {2,4-difluoro-3-[5-(6-pyrrolidin-1-yl-pyridin-3-yl)-1H-pyrrolo[2,3-b]pyridine-3-carbonyl]-phenyl}-amide]
16 | ≤ 10 | ≤ 10 | ≤ 10 | ≤ 10 | – | ≤ 10 | ≤ 10 | ≤ 10 | ≤ 10 | N#Cc1cnc2[nH]cc(C(=O)c3c(F)ccc(NS(=O)(=O)c4ccccc4F)c3F)c2c1 [P-2011, N-[3-(5-Cyano-1H-pyrrolo[2,3-b]pyridine-3-carbonyl)-2,4-difluoro-phenyl]-2-fluoro-benzenesulfonamide]
17 | ≤ 10 | ≤ 10 | ≤ 10 | ≤ 10 | – | ≤ 10 | ≤ 10 | ≤ 10 | ≤ 10 | CC(C)S(=O)(=O)Nc1ccc(F)c(C(=O)c2c[nH]c3ncc(Cl)cc23)c1F [P-2275, Propane-2-sulfonic acid [3-(5-chloro-1H-pyrrolo[2,3-b]pyridine-3-carbonyl)-2,4-difluoro-phenyl]-amide]
